Experimental data taken from patent publication US20220056419A1, “IN VITRO MODEL OF LIVER STEATOSIS AND FIBROSING NON-ALCOHOLIC STEATOHEPATITIS” (GENFIT, priority 2018, published 2022).
“Also recorded” adds a separate entry of the source.

Experiments:
[1] = test system: 3D human liver microtissues; test: Fibrosing NASH model: COL1A1 (pro-collagen I) ELISA in medium 1+medium 2-treated 3D human liver microtissues; format: cell-based; details: single agent, medium 1+medium 2-treated 3D liver microtissues, FIG. 9A
Source text: Cryopreserved primary human hepatocytes (IPHH_11) and cryopreserved primary human non parenchymal cells (NPCs containing endothelial and Kupffer cells) (IPHN_11) were obtained from BioIVT. The cryopreserved human primary hepatic stellate cells (hHSC) were obtained from Innoprot. 3D human liver microtissues were produced with the IPHH_11, the IPHN_11 and the hHSC in a 96-well hanging-drop culture platform (Gravity PLUS™, InSphero AG). After microtissues formation, they were transferred into a microtissue-specific 96-well culture and assay platform (Gravity TRAP™, InSphero AG). Further maintenance and compound treatments were performed in Gravity TRAP™ plates. After tissue formation, the 3D microtissues were maintained in William's E medium (Gibco) supplemented with Insulin (Sigma), Transferrin (Sigma), Selenium (Sigma), Glutamine (Gibco), Dexamethasone (Sigma), HEPES (Sigma), Gentamicin (Gibco) and Amphotericin B (Sigma) at 37° C. in a humidified 5% CO2 cell culture incubator for 4 days. Half of the culture medium was replenished every 3 days.
Hepatic microtissues were treated once with a couple of carbohydrates (final concentration ranging from 1 to 100 mM), a couple of free fatty acids either saturated or unsaturated with a final concentration ranging from 100μM to 1 mM and a source of cholesterol with a concentration ranging from 1 μg/mL to 1 mg/mL (medium 1). After 2 to 5 days, microtissues were treated with a couple of carbohydrates (final concentration ranging from 1 to 100 mM), a couple of free fatty acids either saturated or unsaturated with a final concentration ranging from 100 μM to 1 mM and a source of cholesterol with a concentration ranging from 1 μg/mL to 250 μg/mL, a member of the growth factor superfamily member, a member of the TNFSF with a concentration ranging from 1 ng/mL to 1 μg/mL and a sphingolipid with a concentration ranging from 1 nM to 500 nM (medium 2). This treatment lasts from 2 to 5 days.
The level of Collal, IL-8 and MCP-1 was measured using a Sandwich ELISA, according to manufacturer's instructions provided with “Elisa Pro-Collagen I α1/COLIA1”, (DuoSet ELISA, R&D, catalog N°: DY6220-05), Elisa CXCL8/IL-8 (DuoSet ELISA, R&D, catalog N°: DY208n) and Elisa CCL2/MCP-1 (DuoSet ELISA, R&D, catalog N°: DY279) kits, respectively.
For these experiments, a checkerboard matrix was generated. ELA and component (ii) stocks were serially diluted in DMSO in 2-points series in a row (ELA) and a 3-points series in a column (component (ii)) of a 96-well plate. Subsequently, the 2×3 combination matrix was generated by 1:1 mixing of all single agent concentrations.

3D Huh7 spheroids = test: Steatosis model: AdipoRed lipid quantification in 3D Huh7 spheroids induced with first culture medium; format: cell-based, human; details: 3D liver microtissue steatosis model, 6 days of treatment with test compound
Procedure: The Huh 7 human hepatocellular carcinoma cell line was seeded in William's E medium (Gibco) with 10% FBS (Gibco) at a density of 3000 cells/well in 384 well plate ULA (Corning). After a few days, spheroids are formed and cells are grown in serum-free culture medium.
William's E medium was supplemented with FFAs (oleate+palmitate, 400 μM total FFA concentration) fructose 15 mM (Sigma) and soluble cholesterol […] (Sigma). Huh7 spheroids were treated for 3 days with this medium with or without a test compound and the treatment was renewed once with or without a test compound.
Steatosis was then measured after 6 days of treatment with or without the test compound.
Lipid Staining and Quantification Intracellular lipid accumulation was quantified using the AdipoRed™ Adipogenesis Assay Reagent (Lonza). Cells were visualized under epifluorescence microscope and then subjected to fluorescence assay quantification at λexc: 485 nm and λem: 572 nm, using plate reader (TECAN).

SMILES	inhibition of COL1A1 secretion (collagen release) ([1]; high dose 3 μM)	inhibition of COL1A1 secretion (collagen release) ([1]; high dose 3 μM, listed as ELA)	antisteatotic activity (lipid content, AdipoRed signal) (3D Huh7 spheroids)	inhibition of COL1A1 secretion (collagen release) ([1]; high dose 1 μM)
CSc1ccc(C(=O)/C=C/c2cc(C)c(OC(C)(C)C(=O)O)c(C)c2)cc1 [Elafibranor]	inhibition of COL1A1 secretion	the release of collagen was affected	–	–
O=C(c1c2ccccc2cc2ccccc12)N1CCC(N2CCC[C@@H](C(=O)N3CCOCC3)C2)CC1 [CP-640186]	the release of collagen was affected; also recorded: inhibition of COL1A1 secretion	–	antisteatotic activity	–
COc1ccccc1[C@H](Cn1c(=O)n(C(C)(C)C(=O)O)c(=O)c2c(C)c(-c3ncco3)sc21)OC1CCOCC1 [GS-0976]	–	–	antisteatotic activity	the release of collagen was affected; also recorded: inhibition of COL1A1 secretion
COc1cc(C(=O)N2CCC3(CC2)CC(=O)c2cc(-c4cncc(C(=O)O)c4)ccc2O3)cc2c1c(C)cn2C1CC1 [MK-4074]	–	–	antisteatotic activity	–
